Experiments:
C. striatum NCTC 764 = experiment: Disc diffusion assay (DDA); format: cell-based, Corynebacterium striatum; settings: Corynebacterium striatum, NCTC764; 200 μg per disc; single plates; read-out: DDA zone diameter
Source text: (§1) (a) staphylococci. The Staphylococcus aureus strain used was ATCC 29213. S. aureus and other staphylococci are common causes of a wide range of skin, skin structure and wound infections; S. aureus is also known to exacerbate eczema. The ATCC 29213 strain is known to be susceptible to beta-lactam antibiotics such as methicillin. The Staphylococcus epidermidis strain used was NCTC 11047. Staph. epidermidis forms part of the resident flora of skin and is an opportunistic pathogen which can cause biofilms to grow for instance on plastic surgical implants such as catheters. Unless otherwise stated, the staphylococci were cultured and maintained on Mueller-Hinton Medium (agar and broth) at pH 7.2; cultures were incubated aerobically at 37° C. for 19-20 hours, at pH 7 (±0.2). (b) C. striatum NCTC 764. Corynebacterium striatum is closely related to organisms (aerobic diphtheroids of the genus Corynebacterium) that cause body odour. It was cultured and maintained on Mueller-Hinton medium (agar and broth). All cultures were incubated aerobically at 37° C. for 72 hours, at pH 7 (±0.2). (c) streptococci. […]
(§2) A sterile paper disc was impregnated with a sample of the test compound in a suitable solvent and 30 minutes allowed for the solvents to evaporate (where possible). […] The diameter of this zone of “inhibition” was measured using a ProtoCOL™ automated zone sizer (Synbiosis, Cambridge, UK). […]

S. pyogenes ATCC 12344 = experiment: MIC assay; format: cell-based, Streptococcus pyogenes; settings: Mueller-Hinton broth pH 7.0
[1] = tested on: S. epidermidis NCTC 11047; experiment: MBC assay; format: cell-based, Staphylococcus epidermidis; settings: Mueller-Hinton broth pH 7.0
Source text: as §1, with “(±0.2).” for “(±0.2). (c) streptococci.”
(§3) Example 8 was repeated (except for the supplemented DDA assays), using S. aureus ATCC 29213 as the test organism. […] In the DDA assays, 200 μg is of each compound was loaded onto each disc: the culture medium was Mueller-Hinton agar at pH 7.0, and results were recorded after overnight incubation at 37° C. in air. […]

[2] = tested on: S. epidermidis NCTC 11047; experiment: MIC assay; format: cell-based, Staphylococcus epidermidis; settings: Mueller-Hinton broth pH 7.0
Source text: (a) staphylococci. The Staphylococcus aureus strain used was ATCC 29213. S. aureus and other staphylococci are common causes of a wide range of skin, skin structure and wound infections; S. aureus is also known to exacerbate eczema. The ATCC 29213 strain is known to be susceptible to beta-lactam antibiotics such as methicillin. The Staphylococcus epidermidis strain used was NCTC 11047. Staph. epidermidis forms part of the resident flora of skin and is an opportunistic pathogen which can cause biofilms to grow for instance on plastic surgical implants such as catheters. […]
This is a standard international method for quantitatively assessing the antimicrobial activity of a compound in a liquid medium. […]
The wells were inoculated with a liquid suspension of freshly grown micro-organism and incubated under the conditions described above. […] The MIC value was recorded as the lowest concentration of test compound required to inhibit microbial growth, ie the lowest concentration for which the liquid in the well remained clear. […]
as §3

P. granulosum = experiment: Agar dilution MIC assay, panel of propionibacterium strains; format: cell-based, Propionibacterium granulosum; settings: resistance MLSK
Method: This is a standard international method for quantitatively assessing the antimicrobial activity of a compound in a solid medium. The test compound was prepared to 40× the highest concentration required (eg 10 mg/ml for a final concentration of […]) and a series of doubling dilutions were performed in a suitable solvent. A set amount of these antimicrobial stock solutions was then added to molten agar medium (ca 55° C.), mixed thoroughly, poured into sterile Petri dishes and allowed to cool/set. The culture medium was as described above.
A Multipoint™ Inoculator (AQS Manufacturing Ltd, UK) was used to inoculate the plates by spotting the inocula onto the surface of the agar, delivering approximately 1 to 2 μl per spot (yielding 10^5 CFU (colony forming units) per spot).
The plate(s) were then incubated under the conditions described above, following which they were examined visually for signs of bacterial growth. The MIC value was ascertained when there was a marked reduction in, or total loss of, growth on the test plate at the lowest concentration as compared to that of the growth on the control plate.
The assays were conducted in triplicate and included a positive control (culture medium, diluting solvent and inoculum).
The activity (MIC by agar dilution) of copper usnate was determined against a panel of different propionibacterium strains. […]

[3] = tested on: S. epidermidis NCTC 11047; experiment: Disc diffusion assay (DDA); format: cell-based, Staphylococcus epidermidis; settings: 200 μg per disc; Mueller-Hinton agar pH 7.0; overnight at 37° C. in air
Source text: as §1, with “764.” for “764. Corynebacterium striatum is closely related to organisms (aerobic diphtheroids of the genus Corynebacterium) that cause body odour. It was cultured and maintained on Mueller-Hinton medium (agar and broth). All cultures were incubated aerobically at 37° C. for 72 hours, at pH 7 (±0.2). (c) streptococci.”
as §2, §3

| SMILES | zone of inhibition at 200 µg/disc (C. striatum NCTC 764) | MIC (S. pyogenes ATCC 12344) | MBC [1] | MIC [2] | MIC (P. granulosum; P. granulosum PRP-005, Erm X) | MIC (P. granulosum; P. granulosum PRP-019, Erm X) | DDA zone diameter [3] |
| --- | --- | --- | --- | --- | --- | --- | --- |
| CC(=O)c1c(O)c(C)c(O)c2c1OC1=CC(=O)C(C(C)=O)C(=O)C12C (stereo not shown) [Usnic acid, 2,6-diacetyl-7,9-dihydroxy-8,9b-dimethyl-1,3(2H,9bh)-dibenzofurandione] | 20 mm |  |  |  |  |  |  |
| CC(=O)c1c([O-])c(C)c([O-])c2c1OC1=CC(=O)C(C(C)=O)C(=O)C12C.[Cu+2] (stereo not shown) [Copper usnate, copper (II) usnate] |  | 0.98 µg/mL | 62.5 µg/mL | 0.98 µg/mL | 1.95 µg/mL | 1.95 µg/mL | 25.7 ± 0.6 mm |

Source: patent US20120270935A1, “FORMULATIONS” (priority 2009, published 2012)
